# Test results reported in patent US8673854B2, “Prophylactic agent for heart failure” (Calpis Co., Ltd., priority 2007, dated 2014).
# What was measured:
# Format in all cases: in vivo, male Wistar rats
# [1] = test system: rat left ventricle wall thickening; experiment: Test 1: effect to suppress left ventricle wall thickening in rats administered with L-NAME; conditions: compared with L-NAME alone; drinking water with L-NAME 1 g/L plus VPP 0.3 g/L or Enalapril 0.5 mg/L, ad libitum for eight weeks; FIG. 1
# Procedure: The tripeptide Val Pro Pro (VPP) was tested for the effect of suppressing the thickening of the left ventricle. The test was carried out using three groups of male Wistar rats of seven weeks old (Japan SLC, Inc.), each of which group consisted of 9 to 12 rats. […] The dose of Enalapril was determined such that its activity to inhibit ACE was equivalent to VPP's.
# (§1) The rats were sacrificed by exsanguination under diethylether anesthesia. […] The sliced thin sections were stained with hematoxylin and eosin and the thickness of the left ventricle wall was measured. As for the measurement of the thickness of the ventricle wall, the thickness of a plural of the points per one section, each of which point was considered to have an average thickness, was actually measured with an ocular micrometer under a microscope. The average thickness was defined as the measured value of the section and subjected to statistical analysis. […]
# [2] = test system: rat right ventricle wall thickening; experiment: Test 2: effect to suppress right ventricle wall thickening in rats administered with L-NAME; conditions: compared with L-NAME alone; drinking water with L-NAME 1 g/L plus VPP 0.3 g/L or Enalapril 0.5 mg/L, ad libitum for eight weeks; FIG. 2
# [3] = test system: rat left ventricle wall thickening; experiment: Test 3: effect to suppress left ventricle wall thickening in rats administered with L-NAME; conditions: compared with L-NAME alone; drinking water with L-NAME 1 g/L plus IPP 0.3 g/L or Enalapril 0.5 mg/L, ad libitum for eight weeks; FIG. 3
# Procedure: (§2) The tripeptide Ile Pro Pro (IPP) was also tested for the suppressive effect against the thickening of the ventricle wall. The test was carried out using three groups of male Wistar rats of seven weeks old (Japan SLC, Inc.), each of which group consist of 9 to 11 rats. After acclimation for a week, the animals received: water with L-NAME (manufactured by Sigma) being dissolved at a concentration of 1 g/L; water with L-NAME and IPP being dissolved at a concentration of 1 g/L and 0.3 g/L respectively; or water with L-NAME and angiotensin converting enzyme (ACE) inhibitor, Enalapril at a concentration of 1 g/L and 0.5 mg/L respectively, ad libitum for eight weeks. The dose of Enalapril was determined such that its activity to inhibit ACE was equivalent to the activity of IPP to inhibit ACE.
# as §1, with “for” for “per”
# [4] = test system: rat right ventricle wall thickening; experiment: Test 4: effect to suppress right ventricle wall thickening in rats administered with L-NAME; conditions: L-NAME 1 g/L plus IPP 0.3 g/L or Enalapril 0.5 mg/L in water, eight weeks; for Normal (right ventricle wall equal to or smaller than reference value) / Thickening Positive (right ventricle wall thicker than reference value of rats without L-NAME): likelihood-ratio test, IPP group p < 0.01
# Procedure: In order also to check the effect of the tripeptide Ile Pro Pro (IPP) to suppress the thickening of the right ventricle wall, a test was carried out in the same manner as in Test 3, and measurement and evaluation were made.
# as §2, with “The” for “The tripeptide Ile Pro Pro (IPP) was also tested for the suppressive effect against the thickening of the ventricle wall. The”, “12” for “11”, “animal” for “animals”
# The rats were sacrificed by exsanguination under diethylether anesthesia. The heart was enucleated and then fixed with 10% neutral buffered formalin solution. Annularly-shaped tissue samples were prepared from the fixed heart by horizontally excising the lower part of the atria such that the right ventricle, septum, left ventricle, and coronary artery were included. The specimen were embedded in paraffin and cut into thin sections with a thickness of 3.0 to 3.5 μm using a microtome. Two to five sections per rat were prepared. Slices of the thin sections were stained with hematoxylin and eosin and the thickness of the right ventricle wall was measured. As for the measurement of the thickness of the ventricle wall, the thickness of a plural of the points for one section, each of which point was considered to have an average thickness, was actually measured with an ocular micrometer under a microscope. The average thickness was defined as the measured value of the section and the thickness of the ventricle wall of each individual was determined. The measurement and evaluation of the thickness was carried out by a pathologist who was not informed of the name of each sample.
# The evaluation of the thickening of the ventricle wall involved the measurement of the thickness of the ventricle wall of six rats of the same age in weeks, which rats were fed with general tap water with no L-NAME being added. The average of those was defined as a reference value. In cases where the thickness of its ventricle wall was larger than the reference value, a rat was defined as one with the thickening, whereas in cases where the thickness of its ventricle wall was equal to or smaller than the reference value, a rat was considered to be normal. Using the number of the rats with the thickening and the normal rats, comparisons by likelihood-ratio test were made.
# [5] = test system: rat heart septal wall thickening; experiment: Test 5: effect to suppress heart septal wall thickening in rats administered with L-NAME; conditions: compared with L-NAME alone; drinking water with L-NAME 1 g/L plus IPP 0.3 g/L or Enalapril 0.5 mg/L, ad libitum for eight weeks; FIG. 4
compound,measurement,setting,value
CCOC(=O)[C@H](CCc1ccccc1)N[C@@H](C)C(=O)N1CCC[C@H]1C(=O)O [Enalapril],thickness of the left ventricle wall,[1],did not exhibit the effect
same,thickness of the right ventricle wall,[2],did not show such an effect
same,thickness of the left ventricle wall,[3],did not exhibit such an effect
same,suppression of the thickening of the right ventricle wall (result in words),[4],did not exhibit such an effect
same,Normal (right ventricle wall equal to or smaller than reference value),[4],8 rats
same,Thickening Positive (right ventricle wall thicker than reference value of rats without L-NAME),[4],1 rat^ rats
same,thickness of the heart septal wall,[5],did not exhibit the effect
Ile Pro Pro [IPP],thickness of the left ventricle wall,[3],showed a decrease in the thickness of the left ventricle wall
same,suppression of the thickening of the right ventricle wall (result in words),[4],suppressed the thickening of the right ventricle wall
same,Normal (right ventricle wall equal to or smaller than reference value),[4],9 rats
same,Thickening Positive (right ventricle wall thicker than reference value of rats without L-NAME),[4],0 rats
same,thickness of the heart septal wall,[5],showed a decrease in the thickness of the heart septal wall
Val Pro Pro [VPP],thickness of the left ventricle wall,[1],showed a decrease in the thickness of the left ventricle wall
same,thickness of the right ventricle wall,[2],showed a decrease in the thickness of the right ventricle wall
